Reference: patent publication US11260057B2, “Combination comprising palbociclib and 6-(2,4-dichlorophenyl)-5-[4-[(3S)-1-(3-fluoropropyl)pyrrolidin-3-yl]oxyphenyl]-8,9-dihydro-7H-benzo[7] annulene-2-carboxylic acid and its use for the treatment of cancer” (SANOFI, priority 2017, dated 2022)

Experiments:
[1] = tested on: MCF7-Y537S human breast cancer cell line xenograft; assay: Anti-tumor efficacy against subcutaneous MCF7-Y537S human breast cancer cell line xenograft in female nude mice; format: in vivo; design: key to Biological Interpretation: Active: ΔT/ΔC≤40% is considered as therapeutically active; Very active: ΔT/ΔC<0% is considered as tumor regression (very active); Inactive: ΔT/ΔC>40% is considered as therapeutically inactive; settings: for Tumor volume changes from baseline: Median: compound (1) 5 mg/kg BID, palbociclib 100 mg/kg QD, PO; for Biological Interpretation: based on ΔT/ΔC at day 51; for Biological Interpretation / ΔT/ΔC in % at day 51 / Regressions Complete / Regressions Partial: compound (1) 5 mg/kg PO BID, palbociclib 100 mg/kg PO QD; for ΔT/ΔC in % at day 51: days 22 to 51; for Regressions Complete: mice with complete regression/evaluable mice; for Regressions Complete / Regressions Partial: 30 days; for Regressions Partial: mice with partial regression/evaluable mice
Protocol: In the present study, the anti-tumor efficacy of 6-(2,4-dichlorophenyl)-5-[4-[(3S)-1-(3-fluoropropyl)pyrrolidin-3-yl]oxyphenyl]-8,9-dihydro-7H-benzo[7]annulene-2-carboxylic acid (“compound (1)”), combined with the cyclin-dependent kinase 4 (CDK4) inhibitor palbociclib, was investigated after 30 days treatment against a subcutaneous MCF7-Y537S human breast cancer cell line xenograft in female nude mice.
The treated groups included compound (1) at 5 mg/kg alone, palbociclib at 100 mg/kg alone, and the combination of compound (1) and palbociclib at the same dose and regime.
Compound (1) was orally dosed twice a day (BID) and palbociclib was orally dosed once a day (QD) for 30 days. Anti-tumor efficacy was evaluated by tumor volume measurement.
Female athymic nude mice were obtained from Harlan (Indianapolis, Ind., USA). Animals were allowed to acclimate for at least four days before the study enrollment. Mice were 12 to 13 weeks old and weighed between 20.2 and 27.3 grams at the beginning of the treatments. These animals were housed under conditions outlined in the NIH Guide for Care and Use of Laboratory Animals in compliance with the USDA Laboratory Animal Welfare Act.
Parental MCF7 cells were obtained from the American Type Culture Collection (ATCC® HTB-22™). MCF7-Y537S (ESR1) cell line was MCF7 cells expressing the ER.Y537S variant that was generated by Sanofi Biology Discovery Group. Y537S mutation was introduced in ESR1 construct (GenBank NM_000125.3) by site directed mutagenesis (Toy W. et al., Cancer Discovery, 2017, 7, 277-287). The construct was transfected in MCF7 cells which were selected for their growth in absence of estradiol. MCF-Y537S is an ESR1 mutation that confers estrogen-independent activity to ERα (Estrogen Receptor alpha) and contributes to endocrine resistant disease (Robinson D. R. et al., Nat Genet., 2013, 45 (12), 1446-1451). The cells were grown in Eagle's Minimum Essential Medium (EMEM) supplemented with 10% fetal bovine serum (FBS), human Insulin, in 5% CO2 at 37° C. The cells were harvested in 0.25% Trypsin EDTA and washed by Dulbecco's Phosphate Buffered Saline (DPBS) and re-suspended in DPBS with 50% matrigel (Becton Dickinson catalog No. 356234, lot No. 32277). The cells (20×10^6 cells/per mouse) were subcutaneously (SC) implanted into the right flank of female nude mice.
When the MCF7-Y537S tumors were established, the tumors were reserved as tumor stocks for fragment implantation. The tumors were serially propagated through fragment tissue transplantation subcutaneously. The fragment tumor tissues were subcutaneously implanted into the right flank of female nude mice. 50 mice were assigned in this experiment.
Compound (1) and palbociclib (commercially available, marketed under the tradename Ibrance®) were formulated as follows: […]
Compound (1) was prepared in Vehicle A, then Solutol HS15 (purchased from Sigma) was added to the final concentration 5%, and the solution was left under stirring for an hour for complete dissolution. After that, vehicle B was added. The final pH was 5.5.
Palbociclib was prepared in Vehicle A, then Solutol HS15 was added to the final concentration 5%, and the solution was left under stirring for an hour for complete dissolution. After that, vehicle B was added. The final pH was 5.5.
The animals required for experiment (plus extra) were pooled and implanted with MCF7-Y537S tumor fragment tissues on day 0. On day 21 post implantation, the mice were pooled and randomly distributed to the treatment and control groups (10 mice per group), where median tumor volumes for each group ranged from 202.5 to 211.5 mm^3. Treatments of compound (1) and palbociclib were initiated on day 22. Compound (1) was orally administered at 5 mg/kg BID (at least 5 hours apart) and palbociclib was orally administered at 100 mg/kg QD, for 30 days. Animal body weight was assessed daily.
The dosages are expressed in mg/kg and based on daily body weight per animal. Vehicle treated animals were used as controls. […]

[2] = Tolerability (body weight change, deaths) in the MCF7-Y537S xenograft study in nude mice; format: in vivo; settings: compound (1) 5 mg/kg PO BID, palbociclib 100 mg/kg PO QD; for Average body weight change in % per group at nadir: days 22 to 51 (30 days); for day of nadir (of average body weight change): day post implantation, days 22 to 51; for Unscheduled death (Day of death): dead/total mice, footnote: non-drug related death or terminations, 30 days
Protocol: The animals required for experiment (plus extra) were pooled and implanted with MCF7-Y537S tumor fragment tissues on day 0. […] Animal body weight was assessed daily.
The dosages are expressed in mg/kg and based on daily body weight per animal. Vehicle treated animals were used as controls. Mice were checked daily and adverse clinical reactions noted. Individual mice were weighed daily until the end of the experiment. Mice would be euthanized when morbid or weight loss ≥20% was observed. Tumors were measured with a caliper twice weekly until final sacrifice. When a tumor size reached approximately 2000 mm^3 or when there are animal health issues (40% area of a tumor ulcerated), animals would be euthanized and date of death recorded. Solid tumor volumes were estimated from two dimensional tumor measurements and calculated according to the following equation: […]
Animal body weight included the tumor weight.

SMILES | Tumor volume changes from baseline: Median ([1]; Day 27) | Tumor volume changes from baseline: Median ([1]; Day 30) | Tumor volume changes from baseline: Median ([1]; Day 34) | Tumor volume changes from baseline: Median ([1]; Day 37) | Tumor volume changes from baseline: Median ([1]; Day 41) | Tumor volume changes from baseline: Median ([1]; Day 44) | Tumor volume changes from baseline: Median ([1]; Day 49) | Tumor volume changes from baseline: Median ([1]; Day 51) | Biological Interpretation [1] | ΔT/ΔC in % at day 51 [1] | Regressions Complete [1] | Regressions Partial [1] | Average body weight change in % per group at nadir [2] | day of nadir (of average body weight change) [2] | Unscheduled death (Day of death) [2]
O=C(O)c1ccc2c(c1)CCCC(c1ccc(Cl)cc1Cl)=C2c1ccc(O[C@H]2CCN(CCCF)C2)cc1 [Compound (1), 6-(2,4-dichlorophenyl)-5-[4-[(3S)-1-(3-fluoropropyl)pyrrolidin-3-yl]oxyphenyl]-8,9-dihydro-7H-benzo[7]annulene-2-carboxylic acid] | 114.0 mm^3 | 171.5 mm^3 | 270.5 mm^3 | 336.0 mm^3 | 440.0 mm^3 | 498.5 mm^3 | 727.5 mm^3 | 782.0 mm^3 | Inactive | 59% | 0/8 | 0/8 | −1.7% | 22 | 2/10
CC(=O)c1c(C)c2cnc(Nc3ccc(N4CCNCC4)cn3)nc2n(C2CCCC2)c1=O [Palbociclib, 6-acetyl-8-cyclopentyl-5-methyl-2-[5-(1-piperazinyl)pyridine-2-ylamino]pyrido[2,3-d]pyrimidin-7(8H)-one] | 68.5 mm^3 | 98.0 mm^3 | 121.5 mm^3 | 132.0 mm^3 | 193.5 mm^3 | 249.5 mm^3 | 298.5 mm^3 | 363.5 mm^3 | Active | 27% | 0/10 | 0/10 | −2.0% | 22 | 0/10
